We go through eleven compounds from patent US11028061B2, “Modulators of myocyte lipid accumulation and insulin resistance and methods of use thereof” (Sanford Burnham Prebys Medical Discovery Institute, priority 2015, dated 2021).

The subject of series [1] is primary murine skeletal myocytes. Description: TAG accumulation in primary murine skeletal myocytes. As to conditions: Mus musculus; primary murine skeletal myocytes; read-out: Activity Score (IC50), triacylglyceride (TAG) accumulation. The class given is cell-based.
The subject of the next series is human skeletal myotubes. Put plainly: Triglyceride accumulation in oleate-loaded human skeletal myotubes. The class given is cell-based. How it is done:
Human skeletal myotubes were differentiated for 8 days. On day 7, 100 μM of oleic acid complexed to fatty acid-free BSA was added to the cells with the indicated concentration of test compound for 24 hours. Following incubation with oleate and compound, cells were formaldehyde fixed and stained with AdipoRed™ (Lonza). Triglyceride accumulation was measured using signal intensity at excitation 540/emission 590 nm (Bio-Tek Instruments, Inc.). Dose response curves were generated in Prism 6 (GraphPad Software). EC50 values were calculated using non-linear regression analysis. For biochemical measurement of triglyceride, human skeletal myotubes were incubated with oleate-BSA and test compound as described above. After 24 hour incubation, cells were collected with a lysis buffer containing 0.1% IGEPAL CA-630 (Sigma-Aldrich) in PBS. The harvested cells were sonicated for 5 seconds and then centrifuged at 10,000×g for 10 minutes at 4° C. The supernatant was removed and stored on ice. TAG levels were quantified using Infinity™ Triglycerides Liquid Stable Reagent (Thermo Scientific), following the manufacturer's instructions for colorimetric assay.
Student's t-test, Mann Whitney test, one-way ANOVA with Bonferroni post hoc test, or two-way ANOVA with Tukey post hoc test was performed to determine statistical significance as indicated. […]

Series [2] is described as follows: Plasma concentration in high fat diet mice. As to conditions: male, C57BL/6J, mouse, sc, 4 hours following the final dose, 50 mg/kg s.c. once daily for 7 days. The class given is in vivo. Here is the method: (§1) All animal studies were performed in accordance with the National Institute of Health guidelines for humane treatment of animals and approved by the IACUC of the Sanford Burnham Prebys Medical Discovery Institute at Lake Nona. Six week old male C57BL/6J mice were obtained from Jackson Laboratory (stock number 000664) and acclimated for 1 week prior to study. Mice were maintained on standard chow or a 60% high fat diet (Research Diets, USA) for 8 weeks. SBI-993 was dissolved in a vehicle containing 2% DMSO, 2% Tween-80, and 96% water (pH9.0). Seven weeks after HFD feeding, mice were subcutaneously injected with SBI-993 (50 mg/kg mouse body weight) once daily for 7 days. Each group contains 6-10 mice and three independent experiments were conducted.
(§2) To determine if the effects conferred by SBI-477 observed in myocytes in culture are relevant in vivo, studies were conducted in C57BL/6 mice with diet-induced obesity. […] Mice were fed a 60% high fat diet (HFD) for 8 weeks resulting in significant weight gain (FIG. 6I). During the final week of HFD feeding, SBI-993 or vehicle control was administered as a once daily dose (50 mg/kg s.c.) for 7 days.

The subject of another series is ARRDC4. Description: ARRDC4 expression by quantitative RT-PCR in human myotubes. The class given is cell-based. As to conditions: 24 hours. Here is the method:
FIGS. 4A-C show downregulation of TXNIP and ARRDC4 expression by SBI-477. (FIG. 4A) TXNIP and ARRDC4 mRNA levels as determined by quantitative RT-PCR in human myotubes treated with SBI-477 (10 μM) or DGAT1 inhibitor (DGATi, […]) for 24 hours in the absence or presence of 100 μM oleate (n=4). Expression is shown relative to vehicle/BSA treatment. (FIG. 4B) TXNIP gene expression following exposure to a dose range of SBI-477 for 24 hours (n=4). (FIG. 4C) Left, Effect of SBI-477 on TXNIP protein levels as determined by western blot analysis by SBI-477. Right, Quantitation of the TXNIP western blot data is shown (n=5). *p<0.05 vs. Vehicle/BSA control, †p<0.05 vs. Vehicle/oleate by one-way ANOVA with Bonferroni post hoc test. The data are shown as mean±SD.
Total RNA was isolated using RNeasy Mini Kit (Qiagen) according to the manufacturer's instructions. cDNA was synthesized using the Affinity Script cDNA Synthesis Kit (Stratagene) with 0.5 μg of total RNA. PCR reactions were performed in triplicate […] Roche LightCycler® 480 Instrument II) with specific primers for each gene.

Series [3] relates to C57BL/6 mice with diet-induced obesity. Put plainly: Diet-induced obesity (60% high fat diet) mouse study. The series is classed as in vivo. As to conditions: HFD mice. How it is done: Following a 5 hour fast, a blood sample was obtained from the tail tip for the measurement of baseline glucose using a hand-held glucometer (Accu-Chek Aviva Plus, Roche). A bolus of glucose (1 g/kg) was then administered via i.p. injection. Blood samples were obtained at 5, 15, 30, 60 and 90 minutes following the glucose bolus for measurement of blood glucose. For detection of insulin signaling, mice were fasted for 5 hours on the last day of the study. Gastrocnemius skeletal muscle and liver tissues were harvested 10 minutes after an acute insulin administration (1.5 U/kg, i.p.) and immediately snap frozen. The tissue samples were homogenized in RIPA buffer containing 1% NP-40, 5 mM Na4P2O7, 1 mM EDTA, 20 mM NaF, 2 mM Na3VO4, 1× Complete protease inhibitor (Roche) and 1 mM phenylmethylsulfonyl fluoride. Western blot analysis for levels of phospho-Akt (S473) and total Akt was then performed.
as §1, §2

Where [4] appears, read: muscle and liver, 50 mg/kg s.c. 7 days.

Usually IC50 stands for the concentration needed to halve the response being measured. `COc1ccc(-c2csc(NC(=O)c3ccc(NCC(=O)N4CCOCC4)cc3)n2)cc1` [Cpd. 66, N-(4-(4-methoxyphenyl)thiazol-2-yl)-4-((2-morpholino-2-oxoethyl)amino)benzamide]: the 50% inhibitory concentration (IC50) in series [1] is less than 1 µM. In addition, the “Potency compared with SBI-477 (inhibition of triglyceride accumulation, FIG. 6H)” value in the series on human skeletal myotubes is listed as “improved potency”. This compound returned a concentration at 4 h in series [2] of 4.97 ± 0.97 µM. The ARRDC4 expression entry in the series on ARRDC4 was “to a similar degree as SBI-477”. Further, in series [3] (50 mg/kg s.c. 7 days), the “Glucose tolerance (1 g/kg glucose, i.p.)” value was “improved glucose tolerance”; the Hepatic steatosis result is reported as “substantially ameliorated”; the “TAG levels in skeletal muscle” value is recorded as “significantly reduced”. Moreover, the “Body weight compared to vehicle” value in series [3] (50 mg/kg s.c. once daily for 7 days) is listed as “small but significant reduction”. For the same compound, in series [3] (data not shown), the Food intake result was “not due to reduced food intake”. Further, the “Occupation of ChREBP and MondoA on Txnip and Pklr gene promoters (ChIP)” value in series [3] (liver, 1 week administration) is listed as “reduced in liver”. In addition, the “Insulin signaling (phosphorylated Akt S473) after acute insulin challenge” value in series [3] (muscle and liver) was “improved insulin signaling”. Besides, in series [3] (setting [4]), the “Expression of TAG synthesis and lipogenic genes” value was “reduced the expression”; the “Txnip and Arrdc4 expression” value is “reduced Txnip and Arrdc4 expression”.

As for `CNC(=O)CNc1ccc(C(=O)Nc2nc(-c3ccc(OC)cc3)cs2)cc1` [compound 67, N-(4-(4-methoxyphenyl)thiazol-2-yl)-4-((2-(methylamino)-2-oxoethyl)amino)benzamide], the IC50 in series [1] is less than 1 µM.

On to `COc1ccc(-c2csc(NC(=O)c3ccc(NCC(=O)N(C)C)cc3)n2)cc1` [compound 68, 4-((2-(dimethylamino)-2-oxoethyl)amino)-N-(4-(4-methoxyphenyl)thiazol-2-yl)benzamide], for which the IC50 in series [1] was less than 1 µM.

Regarding `COCCNC(=O)CNc1ccc(C(=O)Nc2nc(-c3ccc(OC)cc3)cs2)cc1` [compound 69, 4-((2-((2-methoxyethyl)amino)-2-oxoethyl)amino)-N-(4-(4-methoxyphenyl)thiazol-2-yl)benzamide], the IC50 in series [1] was greater than 10 µM.

With `COc1ccc(-c2csc(NC(=O)c3ccc(NCC(=O)N4CCOCC4)cc3)n2)c(Cl)c1` [compound 70, N-(4-(2-chloro-4-methoxyphenyl)thiazol-2-yl)-4-((2-morpholino-2-oxoethyl)amino)benzamide], the IC50 in series [1] was less than 1 µM.

As to `CNC(=O)CNc1ccc(C(=O)Nc2nc(-c3ccc(OC)cc3Cl)cs2)cc1` [compound 71, N-(4-(2-chloro-4-methoxyphenyl)thiazol-2-yl)-4-((2-(methylamino)-2-oxoethyl)amino)benzamide], the IC50 in series [1] was less than 1 µM.

As for `COc1ccc(-c2csc(NC(=O)c3ccc(NCC(=O)N(C)C)cc3)n2)c(Cl)c1` [compound 72, N-(4-(2-chloro-4-methoxyphenyl)thiazol-2-yl)-4-((2-(dimethylamino)-2-oxoethyl)amino)benzamide], in series [1], the IC50 is less than 1 µM.

As to `COCCNC(=O)CNc1ccc(C(=O)Nc2nc(-c3ccc(OC)cc3Cl)cs2)cc1` [compound 73, N-(4-(2-chloro-4-methoxyphenyl)thiazol-2-yl)-4-((2-((2-methoxyethyl)amino)-2-oxoethyl)amino)benzamide], the IC50 in series [1] is less than 1 µM.

For the compound `COc1ccc(-c2csc(NC(=O)c3ccc(N)c(OC)c3)n2)cc1` [compound 77, 4-amino-3-methoxy-N-(4-(4-methoxyphenyl)thiazol-2-yl)benzamide], the IC50 in series [1] lay within 1 to 10 µM.

For the compound `COc1cc(C(=O)Nc2ncc(-c3ccccc3)s2)ccc1OCC(=O)N1CCOCC1` [compound 79, 3-methoxy-4-(2-morpholino-2-oxoethoxy)-N-(5-phenylthiazol-2-yl)benzamide], the IC50 in series [1] was greater than 10 µM.

In the case of `COc1ccc(-c2cnc(NC(=O)c3ccc(OCC(=O)N4CCOCC4)c(OC)c3)s2)cc1` [compound 80, 3-methoxy-N-(5-(4-methoxyphenyl)thiazol-2-yl)-4-(2-morpholino-2-oxoethoxy)benzamide], the IC50 in series [1] was greater than 10 µM.
